Here are results for eight compounds from ChEMBL document CHEMBL4330153, “In Vivo Anti-inflammatory and Antiallergic Activity of Pure Naringenin, Naringenin Chalcone, and Quercetin in Mice” (2019).

Assay [1] has as its system Mus musculus. Briefly: Antiallergic activity in CD-1 mouse model of IgE/DNP-BSA-stimulated passive cutaneous anaphylaxis assessed as inhibition of vascular permeability at 5% administered topically immediately after sensitization by Evans blue extravasation assay. Type of assay: functional, organism-based.
In assay [2] the test system is Mus musculus. Briefly: Antiallergic activity in CD-1 mouse model of IgE/DNP-BSA-stimulated passive cutaneous anaphylaxis assessed as inhibition of vascular permeability at 0.1% administered topically immediately after sensitization by Evans blue extravasation assay. Type of assay: functional, organism-based.
For assay [3], the system named is Mus musculus. Briefly: Anti-inflammatory activity in tetradecanoylphorbol-13-acetate-induced CD-1 mouse ear edema model assessed as inhibition of ear edema thickness at 0.5% administered topically immediately after tetradecanoylphorbol-13-acetate treatment and measured 4 hrs post tetradecanoylphorbol-13-acetate treatment relative to control. Type of assay: functional.

Assay [4] concerns Mus musculus. Briefly: Anti-inflammatory activity in tetradecanoylphorbol-13-acetate-induced CD-1 mouse ear edema model assessed as inhibition of ear edema thickness administered topically immediately after tetradecanoylphorbol-13-acetate treatment and measured 4 hrs post tetradecanoylphorbol-13-acetate treatment. Type of assay: functional, organism-based.
Assay [5] deals with Mus musculus. Briefly: Antiallergic activity in CD-1 mouse model of IgE/DNP-BSA-stimulated passive cutaneous anaphylaxis assessed as inhibition of vascular permeability at 2% administered topically immediately after sensitization by Evans blue extravasation assay relative to control. Type of assay: functional.
In assay [6] the test system is Mus musculus. Briefly: Anti-inflammatory activity in arachidonic acid-induced CD-1 mouse ear edema model assessed as inhibition of ear edema thickness administered topically immediately after arachidonic acid treatment and measured 1 hr post arachidonic acid treatment. Type of assay: functional, organism-based.
The subject of assay [7] is Mus musculus. Briefly: Antiallergic activity in mouse model of picryl-chloride-induced […] allergy at 0.8 mg/kg, po for 5 days relative to control. Type of assay: functional.
For assay [8], the system named is Mus musculus. Briefly: Anti-inflammatory activity in arachidonic acid-induced CD-1 mouse ear edema model assessed as inhibition of ear edema thickness at 1% administered topically immediately after arachidonic acid treatment and measured 1 hr post arachidonic acid treatment relative to control. Type of assay: functional.
Assay [9] concerns Mus musculus. Briefly: Anti-inflammatory activity in arachidonic acid-induced CD-1 mouse ear edema model assessed as inhibition of ear edema thickness at 2% administered topically immediately after arachidonic acid treatment and measured 1 hr post arachidonic acid treatment relative to control. Type of assay: functional.
Assay [10] has as its system Mus musculus. Briefly: Antiallergic activity in CD-1 mouse model of IgE/DNP-BSA-stimulated passive cutaneous anaphylaxis assessed as inhibition of vascular permeability at 0.02%, iv administered immediately after sensitization by Evans blue extravasation assay relative to control. Type of assay: functional.
Assay [11] relates to Mus musculus. Briefly: Anti-inflammatory activity in tetradecanoylphorbol-13-acetate-induced CD-1 mouse ear edema model assessed as inhibition of ear edema thickness at 2% administered topically immediately after tetradecanoylphorbol-13-acetate treatment and measured 4 hrs post tetradecanoylphorbol-13-acetate treatment relative to control. Type of assay: functional.
Assay [12] concerns Mus musculus. Briefly: Anti-inflammatory activity in tetradecanoylphorbol-13-acetate-induced CD-1 mouse ear edema model assessed as inhibition of ear edema thickness at 1% administered topically immediately after tetradecanoylphorbol-13-acetate treatment and measured 4 hrs post tetradecanoylphorbol-13-acetate treatment relative to control. Type of assay: functional.
The test system of assay [13] is Mus musculus. Briefly: Antiallergic activity in mouse model of IgE/DNP-BSA-stimulated passive cutaneous anaphylaxis at 5 mg/kg, ip administered as single dose relative to control. Type of assay: functional.
The subject of assay [14] is Mus musculus. Briefly: Antiallergic activity in CD-1 mouse model of IgE/DNP-BSA-stimulated passive cutaneous anaphylaxis assessed as inhibition of vascular permeability at 0.2%, iv administered immediately after sensitization by Evans blue extravasation assay. Type of assay: functional, organism-based.
Assay [15] has as its system Mus musculus. Briefly: Antiallergic activity in CD-1 mouse model of IgE/DNP-BSA-stimulated passive cutaneous anaphylaxis assessed as inhibition of vascular permeability at 4% administered topically as oil-in-water emulsion immediately after sensitization by Evans blue extravasation assay relative to control. Type of assay: functional, organism-based.
The test system of assay [16] is Mus musculus. Briefly: Antiallergic activity in CD-1 mouse model of IgE/DNP-BSA-stimulated passive cutaneous anaphylaxis assessed as inhibition of vascular permeability at 1% administered topically immediately after sensitization by Evans blue extravasation assay relative to control. Type of assay: functional, organism-based.
The subject of assay [17] is Mus musculus. Briefly: Anti-inflammatory activity in arachidonic acid-induced CD-1 mouse ear edema model assessed as inhibition of ear edema thickness at 1.3% administered topically immediately after arachidonic acid treatment and measured 1 hr post arachidonic acid treatment. Type of assay: functional, organism-based.
The test system of assay [18] is Mus musculus. Briefly: Anti-inflammatory activity in tetradecanoylphorbol-13-acetate-induced CD-1 mouse ear edema model assessed as inhibition of ear edema thickness at 1.3% administered topically immediately after tetradecanoylphorbol-13-acetate treatment and measured 4 hrs post tetradecanoylphorbol-13-acetate treatment. Type of assay: functional, organism-based.

Active and inactive are the calls of the source. The calls are words filed in the database; no cut-off is given here.

In the case of `CC(c1cc2ccccc2s1)N(O)C(N)=O` (centres undefined), the inhibition entry in [1] is “Active”.

Take `CCC(=O)O[C@]1(C(=O)COC(C)=O)CC[C@H]2[C@@H]3C[C@H](C)C4=CC(=O)C=C[C@]4(C)[C@H]3[C@@H](O)C[C@@]21C`: the inhibition entry in assay [2] is “Active”.

As to `O=C1C[C@@H](c2ccc(O)cc2)Oc2cc(O)cc(O)c21` [NARINGENIN], the “inhibition (INH)” value turned out to be 32% in [3]; 42% in assay [5]; 22% in assay [8]; 56% in assay [9]; 56% in assay [10]; 62% in assay [11]. Also, the “inhibition (INH)” value in [12] is on record as 56%. For the same compound, the inhibition result in [4] and in [6] was “Dose-dependent effect” each time. The Activity in assay [7] worked out at 15%; in assay [13] it was 70%.

Take `O=C(O)c1cc(=O)c2c(OCC(O)COc3cccc4oc(C(=O)O)cc(=O)c34)cccc2o1`: the inhibition entry in assay [14] was “Active”. Moreover, the inhibition result in [5] and in assay [15] was “inactive” throughout.

With `CN(C)CCC(c1ccc(Cl)cc1)c1ccccn1` (centres undefined), the inhibition result in [16] is “Active”.

Consider `O=c1c(O)c(-c2ccc(O)c(O)c2)oc2cc(O)cc(O)c12` [QUERCETIN], for which the inhibition entry in assay [17] was “inactive”. In addition, the results for the “inhibition (INH)” value in [5] and in [10] were 34% and 80%, respectively. For the same compound, the Activity in assay [7] was 15%. Besides, the inhibition result in assay [18] was “Active”.

As for `O=C(O)Cc1ccccc1Nc1c(Cl)cccc1Cl`, the inhibition result in [8] and in assay [12] was “Active” each time.

Consider `O=C(/C=C/c1ccc(O)cc1)c1c(O)cc(O)cc1O` [4,2',4',6'-TETRAHYDROXYCHALCONE], for which the “inhibition (INH)” value is recorded as 55% in assay [5], 42% in assay [9], 68% in [10] and 27% in assay [12]. Besides, the Activity in assay [7] was 47%.
